In article PMC9933483, “Tail-Approach-Based Design and Synthesis of Coumarin-Monoterpenes as Carbonic Anhydrase Inhibitors and Anticancer Agents” (ACS Omega, 2023):

What was measured:
HT-29 cell line = test: Cell cytotoxicity, MTT assay; assay type: cell-based, human; settings: for IC50: Homo sapiens, HT-29, MTT, 24 h
HEK293T cell line = test: Cell cytotoxicity, MTT assay; assay type: cell-based; settings: Homo sapiens, HEK-293T, 24 h, healthy cell line
PC-3 cell line = test: Cell cytotoxicity, MTT assay; assay type: cell-based; settings: Homo sapiens, 24 h
hCA IX = hCA IX (Homo sapiens, UniProt Q16790); test: biochemical
CA IX [1] = test: Western blotting of CA IX protein expression in HT-29 cells; assay type: cell-based, human; settings: western blot, hypoxia (200 μM CoCl2), 24 h, three doses
Description: (§1) CA IX and CA XII protein expressions were evaluated in treated and control HT-29 and MCF7 cells after hypoxia induction. Cells were seeded in a 6-well plate in DMEM/F12 (normoxic cells) or DMEM/F12 containing 200 μM CoCl2 (hypoxic and treated cells) in order to create hypoxia.[25] HT29 cells were treated with 14 (40, 10, and 1.25 μM), 23 (80, 20, and 1.25 μM), and 66 (80, 20, and 1.25 μM), and MCF7 cells were treated with 14 (40, 10, and 1.25 μM), 23 (80, 20, and 1.25 μM), and 63 (80, 20, and 1.25 μM) for 24 h at three different doses. After the treatment period, cells were washed with cold PBS and homogenized into Ripa cell lysis buffer (Santa Cruz, USA). Samples were prepared, electrophoresed, and transferred according to the literature.[25] The membranes were blocked in 5% fat-free milk (w/v) for 1 h at RT, incubated with the corresponding antibody at 4 °C overnight, and then incubated with the horseradish peroxidase (HRP)-labeled secondary antibody for 1 h at RT. The following antibodies were used: anti-CA IX (ab107257, Abcam), anti-CA XII (sc-374314, Santa Cruz), and anti-GAPDH (A19056, Abclonal). Finally, the membranes were stained with ECL reagents (LumiGLO, CST, USA), and then, imaging was performed with the Bio-Rad Chemidoc Imaging System. The bands were calculated with the Image Lab (Bio-Rad, USA) and analyzed with Graphpad Prism 9.00 (San Diego, CA, USA).

MCF-7 cell line = test: Cell cytotoxicity, MTT assay; assay type: cell-based, human; settings: Homo sapiens, MCF7, 24 h
HT-29 cells = test: Fluorescence microscopy, PI/Hoechst staining; assay type: cell-based, human; settings: HT-29, 1.25 μM, 24 h
Description: HT-29 cells were stained with propidium iodide (PI) and Hoechst 33342 for observation of cell viability under the microscope. HT29 cells were treated with 14, 23, and 66 for 24 h at 1.25 μM concentration. After the treatment period cells were rinsed with PBS, fixed with ice-cold ethanol (95%) at −20 °C for 2 h, and then rinsed with PBS again. Cells were incubated with PI and Hoechst for 10 min and observed by using a fluorescence microscope (Zeiss Axio Observer Z1) with the appropriate excitation/detection filters.

CA XII [2] = test: Western blotting of CA XII protein expression in HT-29 cells; assay type: cell-based, human; settings: western blot, hypoxia (200 μM CoCl2), 24 h, three doses
Description: as §1

CA XII [3] = test: Western blotting of CA XII protein expression in MCF-7 cells; assay type: cell-based, human; settings: western blot, hypoxia (200 μM CoCl2), 24 h, three doses
Description: as §1

CA IX [4] = test: Western blotting of CA IX protein expression in MCF-7 cells; assay type: cell-based, human; settings: western blot, hypoxia (200 μM CoCl2), 24 h, three doses
Description: as §1

| Structure (SMILES) | IC50 (HT-29 cell line) [µM] | IC50 (HEK293T cell line) [µM] | IC50 (PC-3 cell line) [µM] | Ki (hCA IX) [µM] | CA IX expression in HT-29 cells (CA IX [1]) | IC50 (MCF-7 cell line) [µM] | apoptotic/dead cells by PI/Hoechst staining (HT-29 cells) | CA XII expression in HT-29 cells (CA XII [2]) | melting point [°C] | selectivity on HT-29 (cancer vs healthy cells) relative to dox (HT-29 cell line; compared with dox) [fold] | CA XII expression in MCF-7 cells (CA XII [3]) | CA IX expression in MCF-7 cells (CA IX [4]) |
| --- | --- | --- | --- | --- | --- | --- | --- | --- | --- | --- | --- | --- |
| C=CCc1ccc(OCCCCCCCCCCOc2ccc3ccc(=O)oc3c2)c(OC)c1 [Compound 66, 7-((10-(4-Allyl-2-methoxyphenoxy)decyl)oxy)-2H-chromen-2-one] | 22 ± 5.63 | 18.3 ± 3.08 | 25.6 ± 3.47 | 1.3 | decreased | 17.8 ± 2.76 | increased apoptotic/dead cells | decreased | – | – | – | – |
| CC1CCC(C(C)C)C(OCc2cn(CCCCCCCCCCCCOc3ccc4ccc(=O)oc4c3)nn2)C1 (stereo not drawn) [Compound 43, 7-((12-(4-(((2-Isopropyl-5-methylcyclohexyl)oxy)methyl)-1H-1,2,3-triazol-1-yl)dodecyl)oxy)-2H-chromen-2-one] | 27.2 ± 6.18 | 50.6 ± 8.63 | 32.3 ± 9.99 | 0.0025 | – | 77.2 ± 34.8 | – | – | 59 to 60 | – | – | – |
| CC1CCC(C(C)C)C(OCc2cn(CCCOc3ccc4ccc(=O)oc4c3)nn2)C1 (stereo not drawn) [Compound 37, 7-(3-(4-(((2-Isopropyl-5-methylcyclohexyl)oxy)methyl)-1H-1,2,3-triazol-1-yl)propoxy)-2H-chromen-2-one] | 39.9 ± 11.8 | 24.2 ± 3.2 | 29.1 ± 6.83 | – | – | 18.4 ± 3.81 | – | – | 78 to 79 | – | – | – |
| C=CCc1ccc(OCc2cn(CCCCOc3ccc4ccc(=O)oc4c3)nn2)c(OC)c1 [Compound 30, 7-(4-(4-((4-Allyl-2-methoxyphenoxy)methyl)-1H-1,2,3-triazol-1-yl)butoxy)-2H-chromen-2-one] | 41.8 ± 13.5 | 26.8 ± 2.44 | 57.6 ± 23.9 | – | – | 51.2 ± 27 | – | – | 73 to 74 | – | – | – |
| Cc1ccc(C(C)C)cc1OCc1cn(CCCCCCOc2ccc3ccc(=O)oc3c2)nn1 [Compound 23, 7-((6-(4-((5-Isopropyl-2-methylphenoxy)methyl)-1H-1,2,3-triazol-1-yl)hexyl)oxy)-2H-chromen-2-one] | 12.1 ± 3.63 | 8.82 ± 1.42 | 9.4 ± 3.35 | 0.0019 | decreased | 9.1 ± 3.93 | increased apoptotic/dead cells | decreased | – | 3 | decreased | decreased |
| C=CCc1ccc(OCc2cn(CCCCCCCOc3ccc4ccc(=O)oc4c3)nn2)c(OC)c1 [Compound 32, 7-((7-(4-((4-Allyl-2-methoxyphenoxy)methyl)-1H-1,2,3-triazol-1-yl)heptyl)oxy)-2H-chromen-2-one] | 16.3 ± 5.34 | 40.6 ± 13.7 | 36.7 ± 29 | – | – | > 200 | – | – | 101 to 102 | – | – | – |
| Cc1ccc(C(C)C)cc1OCc1cn(CCCCCCCOc2ccc3ccc(=O)oc3c2)nn1 [Compound 24, 7-((7-(4-((5-Isopropyl-2-methylphenoxy)methyl)-1H-1,2,3-triazol-1-yl)heptyl)oxy)-2H-chromen-2-one] | 56.9 ± 18.2 | 134 ± 60.4 | > 200 | 0.0327 | – | > 200 | – | – | 83 to 84 | – | – | – |
| C=CCc1ccc(OCc2cn(CCCOc3ccc4ccc(=O)oc4c3)nn2)c(OC)c1 [Compound 29, 7-(3-(4-((4-Allyl-2-methoxyphenoxy)methyl)-1H-1,2,3-triazol-1-yl)propoxy)-2H-chromen-2-one] | 23.5 ± 7.22 | 34.1 ± 8.6 | 32.4 ± 9.16 | – | – | 20.6 ± 6.5 | – | – | 88 to 89 | – | – | – |
| C=CCc1ccc(OCc2cn(CCOc3ccc4ccc(=O)oc4c3)nn2)c(OC)c1 [Compound 28, 7-(2-(4-((4-Allyl-2-methoxyphenoxy)methyl)-1H-1,2,3-triazol-1-yl)ethoxy)-2H-chromen-2-one] | 25.8 ± 8.4 | – | – | 0.0319 | – | – | – | – | 118 to 119 | – | – | – |
| C=CCc1ccc(OCCCCCCOc2ccc3ccc(=O)oc3c2)c(OC)c1 [Compound 63, 7-((6-(4-Allyl-2-methoxyphenoxy)hexyl)oxy)-2H-chromen-2-one] | > 200 | 40.6 ± 12.1 | 36.4 ± 12.3 | – | – | 3.91 ± 2.16 | – | – | – | – | decreased | decreased |
| C=CCc1ccc(OCCOc2ccc3ccc(=O)oc3c2)c(OC)c1 [Compound 60, 7-(2-(4-Allyl-2-methoxyphenoxy)ethoxy)-2H-chromen-2-one] | > 80 | > 80 | 31.5 ± 8.71 | 0.176 | – | 18.5 ± 3.59 | – | – | 86 to 87 | – | – | – |
| Cc1ccc(C(C)C)c(OCc2cn(CCCCOc3ccc4ccc(=O)oc4c3)nn2)c1 [Compound 14, 7-(4-(4-((2-Isopropyl-5-methylphenoxy)methyl)-1H-1,2,3-triazol-1-yl)butoxy)-2H-chromen-2-one] | 25.1 ± 6.47 | 4.57 ± 0.33 | 53.8 ± 23.4 | – | decreased | 2.48 ± 0.69 | increased apoptotic/dead cells | decreased | – | – | decreased | decreased |
| Cc1ccc(C(C)C)c(OCc2cn(CCCCCCCCCCOc3ccc4ccc(=O)oc4c3)nn2)c1 [Compound 18, 7-((10-(4-((2-Isopropyl-5-methylphenoxy)methyl)-1H-1,2,3-triazol-1-yl)decyl)oxy)-2H-chromen-2-one] | 41.5 ± 14.2 | – | – | 0.268 | – | – | – | – | 72 to 73 | – | – | – |
| Cc1ccc(C(C)C)cc1OCc1cn(CCCCCCCCCCCCOc2ccc3ccc(=O)oc3c2)nn1 [Compound 27, 7-((12-(4-((5-Isopropyl-2-methylphenoxy)methyl)-1H-1,2,3-triazol-1-yl)dodecyl)oxy)-2H-chromen-2-one] | 29.6 ± 6.47 | – | – | 0.0304 | – | – | – | – | 80 to 81 | – | – | – |
